# Tests used:
# NEK6 (human) = NEK6 (human) (UniProt Q9HC98)
# TBK1 (human) = TBK1 (human) (UniProt Q9UHD2)
# MAPK9 (human) = MAPK9 (human) (UniProt P45984)
# PIM1 (human) = PIM1 (human) (UniProt P11309)
# MST4 (human) = MST4 (human) (UniProt Q9P289)
# DYRK3 (human) = DYRK3 (human) (UniProt O43781)
# MKNK2 (human) = MKNK2 (human) (UniProt Q9HBH9)
# STK3 (human) = STK3 (human) (UniProt Q13188)
# EPHB6 (human) = EPHB6 (human) (UniProt O15197); assay: KINOMEscan competition binding; conditions: compound 10.0 µM
# MYO3A (human) = MYO3A (human) (UniProt Q8NEV4); assay: KINOMEscan competition binding; conditions: compound 10.0 µM
# ULK2 (human) = ULK2 (human) (UniProt Q8IYT8); assay: KINOMEscan competition binding; conditions: compound 10.0 µM
# DSTYK (human) = DSTYK (human) (UniProt Q6XUX3); assay: KINOMEscan competition binding; conditions: compound 10.0 µM
# CAMK2D (human) = CAMK2D (human) (UniProt Q13557); assay: KINOMEscan competition binding; conditions: compound 10.0 µM
# EPHA1 (human) = EPHA1 (human) (UniProt P21709); assay: KINOMEscan competition binding; conditions: compound 10.0 µM
# GRK4 (human) = GRK4 (human) (UniProt P32298); assay: KINOMEscan competition binding; conditions: compound 10.0 µM
# SRPK1 (human) = SRPK1 (human) (UniProt Q96SB4); assay: KINOMEscan competition binding; conditions: compound 10.0 µM
# CASK (human) = CASK (human) (UniProt O14936); assay: KINOMEscan competition binding; conditions: compound 10.0 µM
# CDK7 (human) = CDK7 (human) (UniProt P50613); assay: KINOMEscan competition binding; conditions: compound 10.0 µM
# CDK8 (human) = CDK8 (human) (UniProt P49336); assay: KINOMEscan competition binding; conditions: compound 10.0 µM
# [1] = system: PIK3CA (human), P42336 [M1043I]; assay: KINOMEscan competition binding; conditions: compound 10.0 µM
# DCLK2 (human) = DCLK2 (human) (UniProt Q8N568); assay: KINOMEscan competition binding; conditions: compound 10.0 µM
# [2] = system: ABL1 (human), P00519 [M351T]; assay: KINOMEscan competition binding; conditions: compound 10.0 µM
# LRRK2 (human) = LRRK2 (human) (UniProt Q5S007); assay: KINOMEscan competition binding; conditions: compound 10.0 µM
# STK16 (human) = STK16 (human) (UniProt O75716); assay: KINOMEscan competition binding; conditions: compound 10.0 µM
# TSSK1B (human) = TSSK1B (human) (UniProt Q9BXA7); assay: KINOMEscan competition binding; conditions: compound 10.0 µM
# FGFR1 (human) = FGFR1 (human) (UniProt P11362); assay: KINOMEscan competition binding; conditions: compound 10.0 µM
# SRMS (human) = SRMS (human) (UniProt Q9H3Y6); assay: KINOMEscan competition binding; conditions: compound 10.0 µM
# TXK (human) = TXK (human) (UniProt P42681); assay: KINOMEscan competition binding; conditions: compound 10.0 µM
# ACVR1B (human) = ACVR1B (human) (UniProt P36896); assay: KINOMEscan competition binding; conditions: compound 10.0 µM
# CRK2 (P.falciparum) = CRK2 (P.falciparum) (UniProt P61075); assay: KINOMEscan competition binding; conditions: compound 10.0 µM
# MYLK (human) = MYLK (human) (UniProt Q15746); assay: KINOMEscan competition binding; conditions: compound 10.0 µM
# [3] = molecular target: TYK2 JH2 pseudokinase (human) (UniProt P29597); assay: KINOMEscan competition binding; conditions: compound 10.0 µM
# STK32C (human) = STK32C (human) (UniProt Q86UX6); assay: KINOMEscan competition binding; conditions: compound 10.0 µM
# CSNK1E (human) = CSNK1E (human) (UniProt P49674); assay: KINOMEscan competition binding; conditions: compound 10.0 µM
# AURKA (human) = AURKA (human) (UniProt O14965); assay: KINOMEscan competition binding; conditions: compound 10.0 µM
# SRPK2 (human) = SRPK2 (human) (UniProt P78362); assay: KINOMEscan competition binding; conditions: compound 10.0 µM
# MAST1 (human) = MAST1 (human) (UniProt Q9Y2H9); assay: KINOMEscan competition binding; conditions: compound 10.0 µM
# FES (human) = FES (human) (UniProt P07332); assay: KINOMEscan competition binding; conditions: compound 10.0 µM
# NEK4 (human) = NEK4 (human) (UniProt P51957); assay: KINOMEscan competition binding; conditions: compound 10.0 µM
# MST1R (human) = MST1R (human) (UniProt Q04912); assay: KINOMEscan competition binding; conditions: compound 10.0 µM
# Chain of MKNK2 (human) (Q9HBH9 whole entry, looked up): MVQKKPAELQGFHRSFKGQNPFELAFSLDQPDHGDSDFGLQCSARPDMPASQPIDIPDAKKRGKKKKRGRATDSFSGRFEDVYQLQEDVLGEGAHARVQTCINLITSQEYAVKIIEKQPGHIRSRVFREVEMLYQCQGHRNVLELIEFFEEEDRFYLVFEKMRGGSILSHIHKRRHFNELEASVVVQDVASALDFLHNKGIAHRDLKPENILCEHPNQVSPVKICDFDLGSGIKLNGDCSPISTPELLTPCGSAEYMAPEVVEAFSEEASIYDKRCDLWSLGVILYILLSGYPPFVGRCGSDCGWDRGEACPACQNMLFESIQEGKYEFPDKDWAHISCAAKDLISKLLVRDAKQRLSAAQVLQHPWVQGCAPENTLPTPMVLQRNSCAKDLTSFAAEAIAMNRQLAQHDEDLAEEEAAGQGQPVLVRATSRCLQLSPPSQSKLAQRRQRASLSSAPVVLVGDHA
# Chain of STK32C (human) (Q86UX6 whole entry, looked up): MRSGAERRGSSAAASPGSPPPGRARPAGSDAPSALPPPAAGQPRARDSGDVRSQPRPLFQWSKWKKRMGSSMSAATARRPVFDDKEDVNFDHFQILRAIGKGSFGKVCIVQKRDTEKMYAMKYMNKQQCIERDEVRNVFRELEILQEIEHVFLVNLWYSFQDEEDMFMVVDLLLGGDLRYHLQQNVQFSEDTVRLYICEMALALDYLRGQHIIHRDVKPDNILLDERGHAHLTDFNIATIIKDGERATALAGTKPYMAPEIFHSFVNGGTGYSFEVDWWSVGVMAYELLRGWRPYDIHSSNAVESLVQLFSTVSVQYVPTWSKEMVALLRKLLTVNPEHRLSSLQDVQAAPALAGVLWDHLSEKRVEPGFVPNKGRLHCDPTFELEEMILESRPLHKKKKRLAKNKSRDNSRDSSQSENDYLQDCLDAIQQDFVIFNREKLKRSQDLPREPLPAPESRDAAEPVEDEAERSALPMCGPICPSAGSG
# Chain of TBK1 (human) (Q9UHD2 whole entry, looked up): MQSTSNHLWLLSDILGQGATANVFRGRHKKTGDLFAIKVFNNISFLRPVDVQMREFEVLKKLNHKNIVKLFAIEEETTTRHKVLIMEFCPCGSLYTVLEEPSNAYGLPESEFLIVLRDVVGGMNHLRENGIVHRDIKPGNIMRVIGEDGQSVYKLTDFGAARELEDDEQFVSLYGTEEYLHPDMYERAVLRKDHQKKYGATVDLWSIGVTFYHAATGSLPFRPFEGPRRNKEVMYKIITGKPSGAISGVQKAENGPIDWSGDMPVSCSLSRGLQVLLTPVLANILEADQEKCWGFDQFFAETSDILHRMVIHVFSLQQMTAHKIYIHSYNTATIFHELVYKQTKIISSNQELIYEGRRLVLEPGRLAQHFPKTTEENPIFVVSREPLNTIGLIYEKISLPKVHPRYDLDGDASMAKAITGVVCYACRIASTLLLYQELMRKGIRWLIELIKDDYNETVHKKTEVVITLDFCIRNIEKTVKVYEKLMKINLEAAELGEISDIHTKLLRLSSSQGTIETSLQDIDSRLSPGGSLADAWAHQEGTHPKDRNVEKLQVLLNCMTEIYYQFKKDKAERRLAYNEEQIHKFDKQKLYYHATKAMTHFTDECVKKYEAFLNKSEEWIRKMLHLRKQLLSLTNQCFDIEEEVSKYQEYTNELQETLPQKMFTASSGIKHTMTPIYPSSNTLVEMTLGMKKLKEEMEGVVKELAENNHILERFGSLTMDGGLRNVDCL
# Chain of SRPK2 (human) (P78362 whole entry, looked up): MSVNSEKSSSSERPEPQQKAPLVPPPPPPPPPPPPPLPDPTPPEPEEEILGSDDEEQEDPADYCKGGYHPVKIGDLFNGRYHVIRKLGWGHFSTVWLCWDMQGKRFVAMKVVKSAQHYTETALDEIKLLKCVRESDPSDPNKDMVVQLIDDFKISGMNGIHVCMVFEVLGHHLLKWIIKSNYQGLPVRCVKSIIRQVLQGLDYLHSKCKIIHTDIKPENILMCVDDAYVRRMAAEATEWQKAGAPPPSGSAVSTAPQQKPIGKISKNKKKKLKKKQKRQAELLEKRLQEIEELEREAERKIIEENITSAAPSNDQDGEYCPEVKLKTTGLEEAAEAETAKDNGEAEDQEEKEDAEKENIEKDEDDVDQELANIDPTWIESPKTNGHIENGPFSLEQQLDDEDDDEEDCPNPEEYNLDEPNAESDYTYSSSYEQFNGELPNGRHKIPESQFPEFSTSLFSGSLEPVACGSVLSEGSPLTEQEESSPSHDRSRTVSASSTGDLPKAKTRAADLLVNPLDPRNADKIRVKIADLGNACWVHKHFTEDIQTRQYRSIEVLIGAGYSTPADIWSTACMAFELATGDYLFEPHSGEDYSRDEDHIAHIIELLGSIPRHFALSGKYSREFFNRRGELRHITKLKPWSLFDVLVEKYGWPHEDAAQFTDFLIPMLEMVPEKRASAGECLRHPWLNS
# Chain of MAST1 (human) (Q9Y2H9 whole entry, looked up): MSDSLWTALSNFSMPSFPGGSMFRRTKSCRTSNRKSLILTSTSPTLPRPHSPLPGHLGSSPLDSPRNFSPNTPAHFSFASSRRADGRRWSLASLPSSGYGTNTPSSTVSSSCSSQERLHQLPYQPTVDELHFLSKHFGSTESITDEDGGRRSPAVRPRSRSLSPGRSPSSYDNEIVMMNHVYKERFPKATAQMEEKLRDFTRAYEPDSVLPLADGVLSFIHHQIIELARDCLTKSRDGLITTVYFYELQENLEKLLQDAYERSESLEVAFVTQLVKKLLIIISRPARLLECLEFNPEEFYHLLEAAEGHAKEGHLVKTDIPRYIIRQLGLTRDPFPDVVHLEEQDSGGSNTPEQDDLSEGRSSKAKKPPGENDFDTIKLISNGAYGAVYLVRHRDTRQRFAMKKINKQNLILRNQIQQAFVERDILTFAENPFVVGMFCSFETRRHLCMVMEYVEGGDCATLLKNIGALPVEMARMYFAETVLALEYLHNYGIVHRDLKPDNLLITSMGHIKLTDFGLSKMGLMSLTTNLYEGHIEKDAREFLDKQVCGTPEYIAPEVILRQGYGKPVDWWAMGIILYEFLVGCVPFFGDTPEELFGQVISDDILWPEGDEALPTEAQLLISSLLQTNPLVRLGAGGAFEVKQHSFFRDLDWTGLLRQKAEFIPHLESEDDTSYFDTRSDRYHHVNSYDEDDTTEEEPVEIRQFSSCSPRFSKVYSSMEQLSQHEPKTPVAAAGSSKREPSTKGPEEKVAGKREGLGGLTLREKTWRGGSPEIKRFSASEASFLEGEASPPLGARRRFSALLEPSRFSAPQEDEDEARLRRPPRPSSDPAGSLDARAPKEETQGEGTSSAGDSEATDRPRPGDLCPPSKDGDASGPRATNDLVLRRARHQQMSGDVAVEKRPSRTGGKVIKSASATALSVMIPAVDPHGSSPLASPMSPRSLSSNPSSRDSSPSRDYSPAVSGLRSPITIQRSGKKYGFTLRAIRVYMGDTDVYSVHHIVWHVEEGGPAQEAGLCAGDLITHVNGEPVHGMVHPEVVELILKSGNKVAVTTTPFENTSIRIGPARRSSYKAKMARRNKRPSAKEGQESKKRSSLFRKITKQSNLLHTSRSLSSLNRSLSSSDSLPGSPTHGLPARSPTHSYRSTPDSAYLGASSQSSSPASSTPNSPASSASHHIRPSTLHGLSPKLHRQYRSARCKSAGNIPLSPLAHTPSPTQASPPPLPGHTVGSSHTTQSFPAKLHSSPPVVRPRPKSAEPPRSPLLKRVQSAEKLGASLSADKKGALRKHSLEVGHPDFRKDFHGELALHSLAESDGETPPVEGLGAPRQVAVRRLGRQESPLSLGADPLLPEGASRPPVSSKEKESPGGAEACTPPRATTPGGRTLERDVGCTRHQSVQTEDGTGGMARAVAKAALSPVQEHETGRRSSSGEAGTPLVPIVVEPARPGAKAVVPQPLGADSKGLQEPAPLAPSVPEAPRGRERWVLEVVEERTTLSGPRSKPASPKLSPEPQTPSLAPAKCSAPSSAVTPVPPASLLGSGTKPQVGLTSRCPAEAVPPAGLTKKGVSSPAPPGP
# Chain of MAPK9 (human) (P45984 whole entry, looked up): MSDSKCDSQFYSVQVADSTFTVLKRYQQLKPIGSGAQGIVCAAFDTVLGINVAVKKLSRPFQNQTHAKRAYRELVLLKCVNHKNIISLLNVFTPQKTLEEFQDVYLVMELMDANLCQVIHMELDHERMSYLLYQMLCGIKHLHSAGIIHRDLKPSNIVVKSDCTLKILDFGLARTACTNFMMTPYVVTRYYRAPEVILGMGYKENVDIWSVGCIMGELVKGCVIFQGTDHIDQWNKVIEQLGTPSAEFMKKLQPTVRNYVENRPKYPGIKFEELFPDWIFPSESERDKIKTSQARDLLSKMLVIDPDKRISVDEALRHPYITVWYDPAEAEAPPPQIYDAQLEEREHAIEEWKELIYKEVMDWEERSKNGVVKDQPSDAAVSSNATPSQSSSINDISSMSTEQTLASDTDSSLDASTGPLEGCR
# Chain of AURKA (human) (O14965 whole entry, looked up): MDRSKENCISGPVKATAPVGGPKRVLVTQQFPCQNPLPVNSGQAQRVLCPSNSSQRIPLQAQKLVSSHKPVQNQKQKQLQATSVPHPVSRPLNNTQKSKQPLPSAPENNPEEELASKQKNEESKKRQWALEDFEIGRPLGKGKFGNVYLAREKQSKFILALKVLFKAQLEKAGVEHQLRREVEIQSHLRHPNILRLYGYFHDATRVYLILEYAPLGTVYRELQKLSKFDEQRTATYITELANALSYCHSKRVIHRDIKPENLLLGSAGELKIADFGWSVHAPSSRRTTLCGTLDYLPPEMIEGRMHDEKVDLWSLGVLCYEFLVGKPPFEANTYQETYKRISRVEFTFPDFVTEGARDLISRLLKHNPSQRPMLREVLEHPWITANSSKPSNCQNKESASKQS
structure (smiles),measurement,setting,value
CCC(=O)N1CCN(c2ccc(-n3c(=O)ccc4cnc5ccc(-c6cnc7ccccc7c6)cc5c43)cc2C(F)(F)F)CC1,per cent of control,NEK6 (human); compound 1.0 µM,100%
same,per cent of control,TBK1 (human); compound 1.0 µM,96%
same,per cent of control,TBK1 (human); compound 10.0 µM,87%
same,per cent of control,MAPK9 (human); compound 1.0 µM,98%
same,per cent of control,PIM1 (human); compound 1.0 µM,82%
same,per cent of control,PIM1 (human); compound 10.0 µM,24%
same,per cent of control,MST4 (human); compound 1.0 µM,96%
same,per cent of control,MST4 (human); compound 10.0 µM,89%
same,per cent of control,DYRK3 (human); compound 1.0 µM,88%
same,per cent of control,DYRK3 (human); compound 10.0 µM,52%
same,per cent of control,MKNK2 (human); compound 1.0 µM,112%
same,per cent of control,MKNK2 (human); compound 10.0 µM,96%
same,per cent of control,STK3 (human); compound 1.0 µM,97%
same,per cent of control,STK3 (human); compound 10.0 µM,79%
same,"kinase still bound, per cent of control",EPHB6 (human),80%
same,"kinase still bound, per cent of control",MYO3A (human),100%
same,"kinase still bound, per cent of control",ULK2 (human),75%
same,"kinase still bound, per cent of control",DSTYK (human),28%
same,"kinase still bound, per cent of control",CAMK2D (human),72%
same,"kinase still bound, per cent of control",EPHA1 (human),62%
same,"kinase still bound, per cent of control",GRK4 (human),90%
same,"kinase still bound, per cent of control",SRPK1 (human),100%
same,"kinase still bound, per cent of control",CASK (human),100%
same,per cent of control,CDK7 (human),57%
same,per cent of control,CDK8 (human),4.6%
same,"kinase still bound, per cent of control",[1],8.6%
same,"kinase still bound, per cent of control",DCLK2 (human),100%
same,"kinase still bound, per cent of control",[2],100%
same,"kinase still bound, per cent of control",LRRK2 (human),81%
same,"kinase still bound, per cent of control",STK16 (human),18%
same,"kinase still bound, per cent of control",TSSK1B (human),100%
same,"kinase still bound, per cent of control",FGFR1 (human),96%
same,"kinase still bound, per cent of control",SRMS (human),92%
same,"kinase still bound, per cent of control",TXK (human),54%
same,"kinase still bound, per cent of control",ACVR1B (human),45%
same,"kinase still bound, per cent of control",CRK2 (P.falciparum),97%
same,per cent of control,MYLK (human),87%
same,"kinase still bound, per cent of control",[3],55%
same,"kinase still bound, per cent of control",STK32C (human),100%
same,"kinase still bound, per cent of control",CSNK1E (human),59%
same,"kinase still bound, per cent of control",AURKA (human),100%
same,"kinase still bound, per cent of control",SRPK2 (human),100%
same,"kinase still bound, per cent of control",MAST1 (human),93%
same,"kinase still bound, per cent of control",FES (human),41%
same,"kinase still bound, per cent of control",NEK4 (human),86%
same,"kinase still bound, per cent of control",MST1R (human),55%
CC(C)n1nc(-c2cc3cc(O)ccc3[nH]2)c2c(N)ncnc21,per cent of control,NEK6 (human); compound 1.0 µM,99%
same,per cent of control,NEK6 (human); compound 10.0 µM,96%
same,per cent of control,TBK1 (human); compound 1.0 µM,97%
same,per cent of control,TBK1 (human); compound 10.0 µM,95%
same,per cent of control,MAPK9 (human); compound 1.0 µM,103%
same,per cent of control,PIM1 (human); compound 1.0 µM,74%
same,per cent of control,PIM1 (human); compound 10.0 µM,21%
same,per cent of control,MST4 (human); compound 1.0 µM,42%
same,per cent of control,MST4 (human); compound 10.0 µM,13%
same,per cent of control,DYRK3 (human); compound 1.0 µM,10%
same,per cent of control,DYRK3 (human); compound 10.0 µM,2%
same,per cent of control,MKNK2 (human); compound 1.0 µM,86%
same,per cent of control,MKNK2 (human); compound 10.0 µM,42%
same,"kinase still bound, per cent of control",EPHB6 (human),5.3%
same,"kinase still bound, per cent of control",MYO3A (human),12%
same,"kinase still bound, per cent of control",ULK2 (human),39%
same,"kinase still bound, per cent of control",DSTYK (human),5.8%
same,"kinase still bound, per cent of control",CAMK2D (human),69%
same,"kinase still bound, per cent of control",EPHA1 (human),2.7%
same,"kinase still bound, per cent of control",GRK4 (human),83%
same,"kinase still bound, per cent of control",SRPK1 (human),100%
same,per cent of control,CDK7 (human),30%
same,per cent of control,CDK8 (human),43%
same,"kinase still bound, per cent of control",DCLK2 (human),100%
same,"kinase still bound, per cent of control",LRRK2 (human),4.8%
same,"kinase still bound, per cent of control",STK16 (human),34%
same,"kinase still bound, per cent of control",TSSK1B (human),83%
same,"kinase still bound, per cent of control",FGFR1 (human),8.5%
same,"kinase still bound, per cent of control",SRMS (human),61%
same,"kinase still bound, per cent of control",TXK (human),3%
same,"kinase still bound, per cent of control",ACVR1B (human),11%
same,"kinase still bound, per cent of control",CRK2 (P.falciparum),93%
same,per cent of control,MYLK (human),0.9%
same,"kinase still bound, per cent of control",[3],2.6%
same,"kinase still bound, per cent of control",STK32C (human),69%
same,"kinase still bound, per cent of control",CSNK1E (human),0.1%
same,"kinase still bound, per cent of control",AURKA (human),100%
same,"kinase still bound, per cent of control",SRPK2 (human),100%
same,"kinase still bound, per cent of control",MAST1 (human),87%
same,"kinase still bound, per cent of control",FES (human),100%
same,"kinase still bound, per cent of control",NEK4 (human),90%
same,"kinase still bound, per cent of control",MST1R (human),89%
COc1ccc(-c2ccc3c(N4CCOCC4)nc(N4C[C@@H](C)O[C@@H](C)C4)nc3n2)cc1CO,per cent of control,NEK6 (human); compound 1.0 µM,74%
same,per cent of control,NEK6 (human); compound 10.0 µM,83%
same,per cent of control,TBK1 (human); compound 1.0 µM,97%
same,per cent of control,TBK1 (human); compound 10.0 µM,89%
same,per cent of control,MAPK9 (human); compound 1.0 µM,101%
same,per cent of control,MAPK9 (human); compound 10.0 µM,103%
same,per cent of control,PIM1 (human); compound 1.0 µM,89%
same,per cent of control,PIM1 (human); compound 10.0 µM,98%
same,per cent of control,MST4 (human); compound 1.0 µM,87%
same,per cent of control,MST4 (human); compound 10.0 µM,86%
same,per cent of control,DYRK3 (human); compound 1.0 µM,88%
same,per cent of control,DYRK3 (human); compound 10.0 µM,84%
same,per cent of control,MKNK2 (human); compound 1.0 µM,87%
same,per cent of control,MKNK2 (human); compound 10.0 µM,92%
same,per cent of control,STK3 (human); compound 1.0 µM,81%
same,per cent of control,STK3 (human); compound 10.0 µM,102%
same,"kinase still bound, per cent of control",EPHB6 (human),83%
same,"kinase still bound, per cent of control",MYO3A (human),97%
same,"kinase still bound, per cent of control",ULK2 (human),100%
same,"kinase still bound, per cent of control",DSTYK (human),78%
same,"kinase still bound, per cent of control",CAMK2D (human),100%
same,"kinase still bound, per cent of control",EPHA1 (human),96%
same,"kinase still bound, per cent of control",GRK4 (human),67%
same,"kinase still bound, per cent of control",SRPK1 (human),100%
same,"kinase still bound, per cent of control",CASK (human),100%
same,per cent of control,CDK7 (human),73%
same,per cent of control,CDK8 (human),100%
same,"kinase still bound, per cent of control",[1],2%
same,"kinase still bound, per cent of control",DCLK2 (human),100%
same,"kinase still bound, per cent of control",[2],100%
same,"kinase still bound, per cent of control",LRRK2 (human),100%
same,"kinase still bound, per cent of control",STK16 (human),93%
same,"kinase still bound, per cent of control",TSSK1B (human),91%
same,"kinase still bound, per cent of control",FGFR1 (human),100%
same,"kinase still bound, per cent of control",SRMS (human),98%
same,"kinase still bound, per cent of control",TXK (human),100%
same,"kinase still bound, per cent of control",ACVR1B (human),91%
same,"kinase still bound, per cent of control",CRK2 (P.falciparum),90%
same,per cent of control,MYLK (human),57%
same,"kinase still bound, per cent of control",[3],86%
same,"kinase still bound, per cent of control",STK32C (human),87%
same,"kinase still bound, per cent of control",CSNK1E (human),87%
same,"kinase still bound, per cent of control",AURKA (human),80%
same,"kinase still bound, per cent of control",SRPK2 (human),100%
same,"kinase still bound, per cent of control",MAST1 (human),100%
same,"kinase still bound, per cent of control",FES (human),99%
same,"kinase still bound, per cent of control",NEK4 (human),76%
same,"kinase still bound, per cent of control",MST1R (human),99%

# Reference: the kinase profiling compilation of Christmann-Franck et al. (2016)
